These results are taken from EP3917907B1, “MODULATORS OF POTASSIUM ION CHANNELS AND USES THEREOF” (Universitá Degli Studi Di Salerno, priority 2019, dated 2020).

In series [1] the target is T1, Kv7.2 (Homo sapiens, UniProt O43526).
T1 construct: expressed in transfected cells; host or cells: CHO cells (ATCC CRL-9618), transient transfection, pcDNA3.1(+)
The series can be described thus: Whole-cell patch-clamp on CHO cells transiently expressing Kv7.2. As to conditions: CHO cells, mean±SEM, >1 activating, <1 inhibiting; for Idrug/Ictl at 0 mV: ratio of ramp-evoked Kv7.2 current amplitude in presence and absence of drug at 0 mV; for Idrug/Ictl at -40 mV: ratio of ramp-evoked Kv7.2 current amplitude in presence and absence of drug at -40 mV. The format is cell-based. Here is the method: According to the experimental protocol, these plasmids were expressed individually or in combination (in particular of Kv7.2 and Kv7.3), together with a plasmid-expressing enhanced green fluorescent protein (Clontech, Palo Alto, CA) used as a transfection marker. Total cDNA in the transfection mixture was kept at 4 µg. CHO cells were grown in 100-mm plastic Petri dishes in Dulbecco's modified Eagle's medium containing 10% fetal bovine serum, nonessential amino acids (0.1 mM), penicillin (50 U/ml), and streptomycin ([…]) in a humidified atmosphere at 37°C with 5% CO2. The cells were plated on glass coverslips coated with poly-L-lysine, and transfected one day after plating with the appropriate cDNA using Lipofectamine 2000 (Life Technologies), according to the manufacturer's protocol.
Currents from CHO cells were recorded at room temperature (20-22°C) 24 hours after trasfection using the whole-cell configuration of the patch-clamp technique, with glass micropipettes of 3-5 MΩ resistance. During the recording, constant perfusion of extracellular solution was maintained. The extracellular solution contained (in mM): 138 NaCl, 2 CaCl2, 5.4 KCl, 1 MgCl2, 10 glucose, and 10 HEPES, at pH 7.4, adjusted with NaOH. The pipette (intracellular) solution contained (in mM): 140 KCl, 2 MgCl2, 10 EGTA, 10 HEPES, 5 Mg^2+-ATP, at pH 7.3-7.4, adjusted with KOH. Currents were recorded using an Axopatch-200A amplifier, filtered at 5 kHz, and digitized using a DigiData 1440A (Molecular Devices). The pCLAMP software (version 10.2, Molecular Devices) was used for data acquisition and analysis. To evaluate the activity of exemplary compounds on Kv7.2 (see Table 1), as well as on Kv7.1, Kv7.2/7.3, Kv7.3 and Kv7.4 channels for selected compounds (see Table 2), the cells were clamped at -80 mV and currents were elicited by 3-s voltage ramps from -80 mV to +20 mV in the presence and absence of each compound. […] The effects of drugs were expressed as shift in the ramp-voltage (ΔV) calculated at 20% of the maximal current (Miceli et al, Proc Natl Acad Sci U S A. 2013, 110(11):4386-91). Curves were fitted using the following equation: y=max/(1+x/EC50)n, where x is the drug concentration, n is the Hill coefficient and max is the maximal value achieved, as previously described (Ambrosino et al, Br J Pharmacol. 2013, 168(6):1430-1444). Data analysis and fit were performed using Sigmaplot (version 12.3).
Ramp-evoked Kv7.2 currents were analyzed by measuring the currents at -40 mV (a membrane potential value close to the activation threshold) and at 0 mV (a membrane potential value at which Kv7.2 conductance is largely saturated). In particular, -40 mV represents the threshold potential for spike initiation and 0 mV represents instead the membrane potential value at which maximal conductance of the channel is achieved.
In Table 1, the effect of exemplary compounds of the invention is expressed as the ratio between current amplitude in the presence (Idrug) and absence (Ictl) of the drug at these two membrane voltages. […]
(In general: In patch-clamp work, channel activity is measured electrically.)

Series [2] can be described thus: Solution stability (HPLC, extracellular solution, ambient temperature). In kind it is physicochemical. As to conditions: percentage of degradation after 6 h at ambient temperature; 100 ppm in extracellular solution pH 7.4. Here is the method:
(§1) In order to study the solution stability and photostability of the potassium channel modulators object of the present invention, a stock solution of the proper analyte (1 mg/mL) in dimethylsulfoxide (DMSO) has been prepared. This solution has been then diluted to a concentration of 100 ppm using extracellular solution containing (in mM): 138 NaCl, 2 CaCl2, 5.4 KCl, 1 MgCl2, 10 glucose, and 10 HEPES, at pH 7.4, adjusted with NaOH. To measure solution stability, the diluted solutions have been maintained at ambient temperature for 6 h. To measure photostability, the diluted solutions have been irradiated for 6 h using a Oriel Sol3A Solar Simulator (Newport corporation, Irvine, CA, USA) with a 12x12 inches output beam. Aliquots of solution have been withdrawn after 6h and analyzed by HPLC using a Kinetex C18, 150 mm × 4.6 mm × 2.6 µm (Phenomenex, Bologna, Italy) as stationary phase and a mobile phase constituted by A: H2O/CH3CN (80:20) and B: CH3CN. Gradient elution has been performed from 20% to 90% of B in 7.50 minutes and from 90% to 20% of B in 1 minute. The pump flux has been set to 1.5 mL/min. Column has been thermostatted at 40°C during analysis. Results are espressed in Table 3 as percentage of degradation of the product calculated as ratio between the peak area of the analyte at time 0 (Pa0) and after 6h (Pa6) using the following formula: % degradation = (Pa0−Pa6)/Pa0 *100. [formula]

Series [3] is described as follows: Photostability (HPLC, solar simulator irradiation). In kind it is physicochemical. Conditions: percentage of degradation after 6 h irradiation with solar simulator; 100 ppm in extracellular solution pH 7.4. Here is the method:
as §1

Turning to `O=S(=O)(Nc1ccc2c(c1)CCN2Cc1ccc(F)cc1F)C1CCCCC1` [N-(1-(2,4-difluorobenzyl)indolin-5-yl)cyclohexanesulfonamide], in series [1], the “Idrug/Ictl at 0 mV” value turned out to be 3.79±1.09 and the “Idrug/Ictl at -40 mV” value was found to be 5.82±1.38. The Solution stability entry in series [2] was “C (degradation > 40%)”. Moreover, the Photostability entry in series [3] was “C (degradation > 40%)”.
In the case of `O=C(Cc1ccc(Cl)cc1)N1CCc2cc(NS(=O)(=O)C3CCCCC3)ccc21` [N-(1-(2-(4-chlorophenyl)acetyl)indolin-5-yl)cyclohexanesulfonamide], in series [1], the “Idrug/Ictl at 0 mV” value was found to be 1.18±0.08 and the “Idrug/Ictl at -40 mV” value amounted to 1.45±0.08. For the same compound, the Solution stability entry in series [2] is on record as “A (degradation lower than 20%)”. The Photostability result in series [3] is “B (20%< degradation<40%)”.
Turning to `O=S(=O)(Nc1ccc2c(c1)CCN2Cc1ccc(F)c(F)c1)C1CCCCC1` [N-(1-(3,4-difluorobenzyl)indolin-5-yl)cyclohexanesulfonamide], in series [1], the “Idrug/Ictl at 0 mV” value was determined as 2.11±0.18 and the “Idrug/Ictl at -40 mV” value came out at 4.56±1.11. The Solution stability entry in series [2] is reported as “C (degradation > 40%)”. Further, in series [3], the Photostability result is “C (degradation > 40%)”.
`O=S(=O)(Nc1ccc2c(ccn2Cc2ccc(C(F)(F)F)cc2)c1)C1CCCCC1` [N-(1-(4-(trifluoromethyl)benzyl)-1H-indol-5-yl)cyclohexanesulfonamide]: in series [1], the “Idrug/Ictl at 0 mV” value is recorded as 1.93±0.19 and the “Idrug/Ictl at -40 mV” value stood at 2.27±0.49. In addition, in series [2], the Solution stability result was “A (degradation lower than 20%)”. The Photostability result in series [3] is listed as “A (degradation lower than 20%)”.
As to `O=S(=O)(Nc1ccc2c(c1)CCN2Cc1ccc(C(F)(F)F)cc1)C1CCCCC1` [N-(1-(4-(trifluoromethyl)benzyl)indolin-5-yl)cyclohexanesulfonamide], in series [1], the “Idrug/Ictl at 0 mV” value amounted to 2.37±0.58 and the “Idrug/Ictl at -40 mV” value was 3.2±0.20. The Solution stability result in series [2] is listed as “C (degradation > 40%)”. Moreover, the Photostability result in series [3] is “C (degradation > 40%)”.
For `O=[N+]([O-])c1cc(Br)ccc1CN1CCc2cc(NS(=O)(=O)C3CCCCC3)ccc21` [N-(1-(4-bromo-2-nitrobenzyl)indolin-5-yl)cyclohexanesulfonamide], in series [1], the “Idrug/Ictl at 0 mV” value was 3.09±0.52 and the “Idrug/Ictl at -40 mV” value amounted to 7.27±1.32. Further, the Solution stability result in series [2] was “B (20%< degradation<40%)”. Also, the Photostability result in series [3] was “C (degradation > 40%)”.
Take `O=C(c1ccc(F)cc1)N1CCc2cc(NS(=O)(=O)C3CCCCC3)ccc21` [N-(1-(4-fluorobenzoyl)indolin-5-yl)cyclohexanesulfonamide]: in series [1], the “Idrug/Ictl at 0 mV” value is 1.22±0.07 and the “Idrug/Ictl at -40 mV” value turned out to be 1.85±0.30. Moreover, in series [2], the Solution stability result is recorded as “A (degradation lower than 20%)”. Further, the Photostability result in series [3] is listed as “B (20%< degradation<40%)”.
As for `O=S(=O)(Nc1ccc2c(ccn2Cc2ccc(F)cc2)c1)C1CCCCC1` [N-(1-(4-fluorobenzyl)-1H-indol-5-yl)cyclohexanesulfonamide], in series [1], the “Idrug/Ictl at 0 mV” value worked out at 2.76±0.19 and the “Idrug/Ictl at -40 mV” value was 4.71±1.31. Also, in series [2], the Solution stability result is recorded as “A (degradation lower than 20%)”. Further, in series [3], the Photostability entry was “A (degradation lower than 20%)”.
For the compound `CC(C)CS(=O)(=O)Nc1ccc2c(c1)CCN2Cc1ccc(F)cc1` [N-(1-(4-fluorobenzyl)indolin-5-yl)-2-methylpropane-1-sulfonamide], in series [1], the “Idrug/Ictl at 0 mV” value turned out to be 1.93±0.32 and the “Idrug/Ictl at -40 mV” value came out at 2.55±0.79. In addition, the Solution stability result in series [2] is listed as “C (degradation > 40%)”. The Photostability result in series [3] is recorded as “C (degradation > 40%)”.
Take `CC1CC(C)CN(S(=O)(=O)Nc2ccc3c(c2)CCN3Cc2ccc(F)cc2)C1` (centres unmarked) [N-(1-(4-fluorobenzyl)indolin-5-yl)-3,5-dimethylpiperidine-1-sulfonamide]: in series [1], the “Idrug/Ictl at 0 mV” value was 1.87±0.22 and the “Idrug/Ictl at -40 mV” value is recorded as 1.91±0.44. Moreover, the Solution stability result in series [2] is on record as “B (20%< degradation<40%)”. In addition, the Photostability entry in series [3] is listed as “B (20%< degradation<40%)”.
`CN1CCN(S(=O)(=O)Nc2ccc3c(c2)CCN3Cc2ccc(F)cc2)CC1` [N-(1-(4-fluorobenzyl)indolin-5-yl)-4-methylpiperazine-1-sulfonamide]: in series [1], the “Idrug/Ictl at 0 mV” value is 0.95±0.07 and the “Idrug/Ictl at -40 mV” value came out at 1.25±0.19. In series [2], the Solution stability entry is “B (20%< degradation<40%)”. The Photostability entry in series [3] was “B (20%< degradation<40%)”.
As to `CC(=O)Nc1ccc2c(c1)CCN2Cc1ccc(F)cc1` [N-(1-(4-fluorobenzyl)indolin-5-yl)acetamide], in series [1], the “Idrug/Ictl at 0 mV” value is recorded as 1.64±0.20 and the “Idrug/Ictl at -40 mV” value is 1.88±0.14. In addition, the Solution stability entry in series [2] is given as “A (degradation lower than 20%)”. Besides, the Photostability result in series [3] is recorded as “A (degradation lower than 20%)”.
Consider `O=S(=O)(Nc1ccc2c(c1)CCN2Cc1ccc(F)cc1)N1CCCCCC1` [N-(1-(4-fluorobenzyl)indolin-5-yl)azepane-1-sulfonamide], for which, in series [1], the “Idrug/Ictl at 0 mV” value amounted to 0.98±0.11 and the “Idrug/Ictl at -40 mV” value was 0.89±0.12. Moreover, the Solution stability entry in series [2] is listed as “B (20%< degradation<40%)”. Also, in series [3], the Photostability entry was “B (20%< degradation<40%)”.
Regarding `O=S(=O)(Nc1ccc2c(c1)CCN2Cc1ccc(F)cc1)c1ccccc1` [N-(1-(4-fluorobenzyl)indolin-5-yl)benzenesulfonamide], in series [1], the “Idrug/Ictl at 0 mV” value came out at 0.64±0.14 and the “Idrug/Ictl at -40 mV” value turned out to be 1.15±0.28. Also, the Solution stability entry in series [2] was “A (degradation lower than 20%)”. For the same compound, the Photostability entry in series [3] is given as “B (20%< degradation<40%)”.
For `CCCCS(=O)(=O)Nc1ccc2c(c1)CCN2Cc1ccc(F)cc1` [N-(1-(4-fluorobenzyl)indolin-5-yl)butane-1-sulfonamide] the same measures were 1.55±0.12, 2.03±0.19, “C (degradation > 40%)” and “C (degradation > 40%)”.
With `O=C(Nc1ccc2c(c1)CCN2Cc1ccc(F)cc1)C1CCCCC1` [N-(1-(4-fluorobenzyl)indolin-5-yl)cyclohexanecarboxamide], in series [1], the “Idrug/Ictl at 0 mV” value was 0.66±0.07 and the “Idrug/Ictl at -40 mV” value was 1.32±0.21. The Solution stability entry in series [2] was “A (degradation lower than 20%)”. Besides, the Photostability entry in series [3] was “B (20%< degradation<40%)”.
The matching figures for `CCCCCCS(=O)(=O)Nc1ccc2c(c1)CCN2Cc1ccc(F)cc1` [N-(1-(4-fluorobenzyl)indolin-5-yl)hexane-1-sulfonamide]: 2.18±0.09, 2.48±0.20, “B (20%< degradation<40%)” and “C (degradation > 40%)”.
